According to the supplement of paper PMC10307832:

How the values were obtained:
Test in all cases: relative viability (nuclei count vs DMSO), 5 days (fraction); higher = more cells survive
[1] = compound: O=C(O)c1ccc2c(c1)nc(Nc1cccc(Cl)c1)c1ccncc12 [Silmitasertib] + CS(=O)(=O)N1CCN(Cc2cc3nc(-c4cccc5[nH]ncc45)nc(N4CCOCC4)c3s2)CC1 [Pictilisib] (partner 1 µM)
Outline: (§1)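 Cells from lung cancer lines were seeded into 1536-well plates and, one day later, dosed by pin tool. Treatments were either a single drug or a fixed dose of an anchor drug with five library-drug doses (not always all listed) in √10 steps. After 5 days, nuclei were stained in a one-step fixation (final 0.05% Triton X-100, 1% formaldehyde, 1 ug/ml Hoechst) and counted on 4× images, and relative viability is the treated-to-vehicle nuclei ratio, as the median of duplicate plates.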

[2] = compound: O=C(O)c1ccc2c(c1)nc(Nc1cccc(Cl)c1)c1ccncc12 [Silmitasertib] + Cc1cc(Nc2cc(N3CCN(C)CC3)nc(Sc3ccc(NC(=O)C4CC4)cc3)n2)n[nH]1 [Tozasertib] (partner 0.1 µM)
Outline: as §1

[3] = compound: O=C(O)c1ccc2c(c1)nc(Nc1cccc(Cl)c1)c1ccncc12 [Silmitasertib] + Cc1nc(NC(=O)N2CCC[C@H]2C(N)=O)sc1-c1ccnc(C(C)(C)C(F)(F)F)c1 [Alpelisib] (partner 2 µM)
Outline: as §1

[4] = compound: O=C(O)c1ccc2c(c1)nc(Nc1cccc(Cl)c1)c1ccncc12 [Silmitasertib] + N=C(N)NC(=N)NCCc1ccccc1 [Phenformin] (partner 250 µM)
Outline: as §1

[5] = compound: O=C(O)c1ccc2c(c1)nc(Nc1cccc(Cl)c1)c1ccncc12 [Silmitasertib] + O=C(CCCCCCC(=O)Nc1ccccc1)NO [Vorinostat] (partner 1 µM)
Outline: as §1

Cell Line | relative viability ([1]; first compound 0.04 µM) | relative viability ([1]; first compound 0.4 µM) | relative viability ([1]; first compound 1.265 µM) | relative viability ([1]; first compound 4 µM) | relative viability ([2]; first compound 0.04 µM) | relative viability ([2]; first compound 0.4 µM) | relative viability ([2]; first compound 1.265 µM) | relative viability ([2]; first compound 4 µM) | relative viability ([3]; first compound 0.04 µM) | relative viability ([3]; first compound 0.4 µM) | relative viability ([3]; first compound 1.265 µM) | relative viability ([3]; first compound 4 µM) | relative viability ([4]; first compound 0.04 µM) | relative viability ([4]; first compound 0.4 µM) | relative viability ([4]; first compound 1.265 µM) | relative viability ([4]; first compound 4 µM) | relative viability ([5]; first compound 0.04 µM) | relative viability ([5]; first compound 0.4 µM) | relative viability ([5]; first compound 1.265 µM) | relative viability ([5]; first compound 4 µM)
NCI-H1944 | 0.361 | 0.442 | 0.364 | 0.381 | 0.259 | 0.266 | 0.237 | 0.308 | 0.892 | 0.765 | 0.774 | 0.884 | 0.21 | 0.211 | 0.22 | 0.186 | 0.595 | 0.459 | 0.647 | 0.531
NCI-H1975 | 0.313 | 0.25 | 0.207 | 0.208 | 0.942 | – | 0.514 | 0.308 | 0.683 | 0.532 | 0.589 | 0.468 | 0.443 | – | 0.382 | 0.394 | 0.766 | – | 0.687 | 0.69
NCI-H1993 | 0.818 | 0.818 | 0.854 | 0.916 | 0.622 | 0.523 | 0.522 | 0.53 | 0.662 | 0.602 | 0.617 | 0.688 | 0.547 | 0.447 | 0.543 | 0.566 | 0.911 | 0.553 | 0.659 | 0.514
NCI-H2009 | 1.07 | 0.701 | 0.427 | 0.244 | 0.817 | 0.839 | 0.719 | 0.474 | 1.17 | 1.03 | 1.03 | 0.707 | 0.542 | 0.487 | 0.374 | 0.312 | 0.787 | 0.681 | 0.795 | 0.751
NCI-H2023 | 0.275 | 0.275 | 0.194 | 0.179 | 0.46 | 0.321 | 0.24 | 0.252 | 0.684 | 0.522 | 0.599 | 0.399 | 0.455 | 0.38 | 0.374 | 0.34 | 0.839 | 0.268 | 0.63 | 0.374
NCI-H2085 | 0.474 | 0.547 | 0.453 | 0.457 | 0.82 | 0.737 | 0.602 | 0.533 | 1.02 | 0.806 | 0.81 | 0.878 | 0.761 | – | 0.675 | 0.597 | 0.837 | 0.638 | 0.725 | 0.548
NCI-H2087 | 0.997 | 0.513 | 0.577 | 0.347 | 0.264 | – | 0.152 | 0.132 | 1.08 | 0.811 | 0.76 | 0.386 | 0.515 | – | 0.431 | 0.223 | 0.669 | 0.506 | 0.672 | 0.589
NCI-H2126 | 0.512 | 0.508 | 0.45 | 0.454 | 0.845 | 0.759 | 0.793 | 0.709 | 0.72 | 0.667 | 0.727 | 0.704 | 0.494 | 0.515 | 0.494 | 0.462 | 0.863 | 0.607 | 0.693 | 0.406
NCI-H2170 | 0.32 | 0.259 | 0.31 | 0.269 | 0.673 | 0.478 | 0.713 | 0.65 | 0.805 | 0.648 | 0.697 | 0.771 | 0.408 | 0.34 | 0.406 | 0.421 | 0.81 | 0.503 | 0.73 | 0.683
NCI-H2228 | 0.505 | 0.312 | 0.367 | 0.305 | 0.287 | – | 0.247 | 0.23 | 0.785 | 0.821 | 0.821 | 0.808 | 0.409 | – | 0.258 | 0.371 | 0.848 | 0.513 | 0.779 | 0.875
NCI-H2347 | 0.739 | 0.829 | 0.665 | 0.82 | 0.663 | – | 0.56 | 0.419 | 1.07 | 0.854 | 0.93 | 0.904 | 1.22 | – | 0.452 | 0.301 | 0.565 | 0.502 | 0.565 | 0.479
NCI-H2405 | 0.586 | 0.388 | 0.379 | 0.28 | 0.772 | 0.526 | 0.652 | 0.665 | 0.935 | 0.688 | 0.639 | 0.775 | 0.435 | 0.34 | 0.34 | 0.301 | 1.1 | 0.927 | 0.839 | 0.519
NCI-H3122 | 0.694 | 0.53 | 0.634 | 0.644 | 0.427 | 0.41 | 0.334 | 0.305 | 0.784 | 0.726 | 0.902 | 0.969 | 0.416 | 0.365 | 0.433 | 0.47 | 1.04 | 0.807 | 0.679 | 1.19
PC-3 [JPC-3] | 0.837 | 0.672 | 0.586 | 0.708 | 0.971 | 0.69 | 0.86 | 0.835 | 1.02 | 0.79 | 1.01 | 1 | 0.475 | 0.398 | 0.468 | 0.424 | 0.815 | 0.706 | 0.833 | 0.436
PC-14 | 0.629 | 0.661 | 0.566 | 0.646 | 0.668 | – | 0.595 | 0.532 | 0.968 | 0.942 | 0.924 | 0.939 | 0.641 | – | 0.547 | 0.125 | 0.893 | – | 0.734 | 0.482
RERF-LC-KJ | 0.629 | 0.494 | 0.366 | 0.323 | 0.546 | 0.531 | 0.382 | 0.248 | 0.929 | 0.797 | 0.66 | 0.51 | 0.407 | 0.378 | 0.31 | 0.268 | 0.768 | 0.517 | 0.463 | 0.371
